This is an account of results in patent US20240417359A1, “PRECURSORS OF PHENOLIC FRAGRANT COMPOUNDS” (GIVAUDAN SA, priority 2021, published 2024).

This assay in a line: Odour description on paper blotter. The settings on record: 1% solution in EtOH on paper blotter, 24 h.
On to “1-(dec-1-en-4-yloxy)-2-ethoxy-4-methylbenzene and 2-(dec-1-en-4-yloxy)-1-ethoxy-4-methylbenzene [Example 46]”, for which the Odour description entry is on record as “medicinal, phenolic, vanilla”.
The value for `CCCCCC[C@@H](C/C=C\CCCCCCCC(=O)OC)Oc1cc(C)c(C(=O)OC)c(O)c1C` [Example 3, methyl (S,Z)-2-hydroxy-4-((18-methoxy-18-oxooctadec-9-en-7-yl)oxy)-3,6-dimethylbenzoate] was “powdery mossy, evernyl, green, fatty”.
The same measure for `CCCCCCC(CC=C(C)C)Oc1ccc(C=O)cc1OCC` (centres unmarked) [Example 4, 3-ethoxy-4-((2-methylundec-2-en-5-yl)oxy)benzaldehyde]: “vanilla (powdery, creamy) dry (dough)”; for `C=CCC(Oc1ccc(CCC(C)=O)cc1)C(C)=CCC` (centres unmarked) [Example 5, 4-(4-((5-methylocta-1,5-dien-4-yl)oxy)phenyl)butan-2-one]: “fruity (powdery, sweet, raspberry)”; for `C=CCC(Oc1ccc(C=CC)cc1OC)C(C)=CCC` (centres unmarked) [Example 6, 2-methoxy-1-((5-methylocta-1,5-dien-4-yl)oxy)-4-(prop-1-en-1-yl)benzene]: “woody (smokey, cedarwood, pyrogravure)”.
The value for `C=CCC(Oc1cc(C)c(C(=O)OC)c(O)c1C)C(C)=CCC` (centres unmarked) [Example 7, methyl 2-hydroxy-3,6-dimethyl-4-((5-methylocta-1,5-dien-4-yl)oxy)benzoate] was “powdery (evernyl)”; that for `C=CCC(Oc1ccc(CCC(C)=O)cc1)c1ccccc1` (centres unmarked) [Example 8, 4-(4-((1-phenylbut-3-en-1-yl)oxy)phenyl)butan-2-one] was “fruity (powdery, sweet, raspberry)”.
On to `CCCCCCC=CC=CCC(CCCCCC)Oc1ccc(CCC(C)=O)cc1` (centres unmarked) [Example 9, 4-(4-((octadeca-9,11-dien-7-yl)oxy)phenyl)butan-2-one], for which the Odour description entry is reported as “powdery fruity raspberry”.
The value for `CCCCCCC(CC=CCC(CCCCCC)Oc1ccc(CCC(C)=O)cc1)Oc1ccc(CCC(C)=O)cc1` (centres unmarked) [Example 10, 4,4′-((octadec-9-ene-7,12-diylbis(oxy))bis(4,1-phenylene))bis(butan-2-one)] was “powdery fruity raspberry”; that for `C=CCC(Oc1ccc(C=O)cc1OCC)C(C)=CCC` (centres unmarked) [Example 11, 3-ethoxy-4-((5-methylocta-1,5-dien-4-yl)oxy)benzaldehyde] was “powdery (vanilla)”; that for `C=CCC(C/C=C\CC)Oc1ccc(C=CC)cc1OC` (centres unmarked) [Example 13, 2-methoxy-1-(((Z)-nona-1,6-dien-4-yl)oxy)-4-(prop-1-en-1-yl)benzene] was “creamy, vanilla”.
The value for `C=C(C)[C@@H]1CC[C@@H](C)C[C@@H]1Oc1ccc(CCC(C)=O)cc1` [Example 14, 4-(4-(((1S,2S,5R)-5-methyl-2-(prop-1-en-2-yl)cyclohexyl)oxy)phenyl)butan-2-one] was “sweet fruity (raspberry)”.
The value for `CCCCCC(CC=Cc1ccccc1)Oc1ccc(C=O)cc1OCC` (centres unmarked) [Example 15, 3-ethoxy-4-((1-phenylnon-1-en-4-yl)oxy)benzaldehyde] was “powdery (vanilla)”; that for `CCOc1cc(C=O)ccc1OC(C)(C)CC=C=C(C)C` [Example 16, 4-((2,6-dimethylhepta-4,5-dien-2-yl)oxy)-3-ethoxybenzaldehyde] was “powdery (vanilla)”.
Regarding `CCOc1cc(C=O)ccc1OC(C)(C)CC=C=C(C)CCC=C(C)C` [Example 18, 3-ethoxy-4-((2,6,10-trimethylundeca-4,5,9-trien-2-yl)oxy)benzaldehyde], the Odour description entry is “vanilla powdery”.
The value for `CC/C=C/CC(CCC)Oc1ccc(C=O)cc1OCC` (centres unmarked) [Example 19, (E)-3-ethoxy-4-(non-6-en-4-yloxy)benzaldehyde] was “vanilla powdery creamy”; that for `CCOc1cc(C=O)ccc1OCC/C=C(\C)CC/C=C(\C)CCC=C(C)C` [Example 20, 3-ethoxy-4-(((3E,7E)-4,8,12-trimethyltrideca-3,7,11-trien-1-yl)oxy)benzaldehyde] was “vanilla (powdery, creamy, chocolate, gourmand)”.
